Experimental data reported in patent publication US7408067B2, “Aza-cyclic compounds as modulators of acetylcholine receptors” (Merck + Co., Inc., priority 2002, dated 2008).
Structures can show the parent of a compound that is named as a salt.

| melting point [°C] | SMILES |
| --- | --- |
| > 260 | CN1CCC(Sc2ccc3[nH]c(=O)[nH]c(=O)c3c2)CC1 [Example 17, 6-[(1-methyl-4-piperidinyl)sulfanyl]-2,4(1H,3H)-quinazolinedione] |
| 210.2 to 211.9 | CN1CCC(Sc2cc3c(cc2Cl)[nH]c(=O)n3C)CC1 [Example 20, 5-Chloro-1-methyl-6-[(1-methyl-4-piperidinyl)sulfanyl]-1,3-dihydro-2H-benzimidazol-2-one] |
| 213.8 to 214.7 | CN1CCC(Sc2ccc3[nH]c(=O)[nH]c3c2)CC1 [Example 16, 5-[(1-methyl-4-piperidinyl)sulfanyl]-1,3-dihydro-2H-benzimidazol-2-one] |
| 96 to 98 | CN1CCC(Sc2ccc(N)cc2)CC1 (as salt: hydrochloride) [Example 5, 4-(1-methylpiperidin-4-yl)thiophenylamine] |
| 196.4 to 197.6 | CN1CCC(Sc2ccc3[nH]c(=O)n(C)c3c2)CC1 [Example 18, 1-Methyl-6-[(1-methyl-4-piperidinyl)sulfanyl]-1,3-dihydro-2H-benzimidazol-2-one] |
| 199 to 201 | CC(=O)Nc1ccc(SC2CCN(C)CC2)cc1 (as salt: salt) [Example 7, N-{4-[(1-methylpiperidin-4-yl)thio]phenyl}acetamide] |
| 200.8 to 202.6 | CN1CCC(Sc2ccc3[nH]c(=O)n(C)c(=O)c3c2)CC1 [Example 21, 3-Methyl-6-[(1-methyl-4-piperidinyl)sulfanyl]-2,4(1H,3H)-quinazolinedione] |
